# According to US20100004248A1, “Use of a Nitric Oxide Synthase Modulator for the Treatment of Cardiac Indications” (priority 2005, published 2010):
# System: C57/BL6 WT mice subjected to TAC pressure overload
# Test: In vivo hemodynamics, PV loop analysis, in TAC mice
# Set-up: species or system mouse
# Details: TAC 3 weeks
# Source text: Male NOS3 null mice (NOS3^−/−) and C57/BL6 WT controls (8-11 weeks, Jackson Labs, Bar Harbor, Me., USA) were used. Pressure overload was produced by transverse aorta constriction (TAC). Briefly, The aortic arch was isolated by entering the extrapleural space between the second and third rib, and afterwards the transverse aorta was isolated between the right and left carotid arteries. A 7-0 prolene suture ligature was tied around the transverse aorta against a 27-gauge needle to produce a 65-70% constriction after the removal of the needle. After closing the chest, animals were extubated, and a subcutaneous injection of morphine sulphate 0.2 mg, was administered before they returned to their cages. Animal's ventilatory and circulatory status was checked every 30 minutes during the first 2 hours. Sham-operated mice underwent the same operation except for aortic constriction. […] Animals were randomized to receive placebo or BH4 (120 mg/kg/d) for the next 5 weeks. At the end of the study, i.e. at 9 weeks, animal were sacrificed to receive tissue or underwent in vivo PV-loop analysis. […] Control mice were subject to sham operations, and animals were studied 3-9 weeks following surgery. An additional group of wild-type animals were subjected to TAC for 3 weeks while co-treated with oral tetrahydrobiopterin (BH4) (Sigma-Aldrich) (1 mg/g food) mixed in their rodent chow, providing 5 mg/day based on 4-6 g daily diet^8.
# Two different BH4 treatment protocols are used. For experiments related to FIGS. 1-7, where prevention of cardiac indications is described BH4 is provided orally as a treatment starting 2 days after TAC surgery (once mice are again eating oral diet). For those figures related to treatment of established cardiac indications, FIGS. 8-23, BH4 is provided orally but this is delayed for 4 weeks to establish substantial cardiac hypertrophy, remodeling, and NOS-uncoupling. Then the treatment is provided for the remaining 5 week period.
# In vivo left ventricular (LV) function was assessed by pressure-volume catheter^12,13. Mice were anesthetized with 1-2% isoflurane, urethane ([…], i.p.), etomidate (5-10 mg/kg, i.p.), and morphine (1-2 mg/kg, i.p.), underwent tracheostomy, and were ventilated with 6-7 μL/g tidal volume and 130 breaths/min. Volume expansion (12.5% human albumin, 50-100 μL over 5 min) was provided through a 30 G cannula via the right external jugular vein. The left ventricular apex was exposed through an incision between the 7-8th rib, and a catheter, specifically a 1.4 Fr PV catheter (SPR 839, Millar Instruments, Inc.), was advanced through the apex to lie along the longitudinal axis. Absolute volume was calibrated, and pressure-volume data was measured at steady state and during transient reduction of venous return as reported^13
# [1] = oral co-treatment 1 mg/g food, mean ± sem
compound,measurement,setting,value
"Nc1nc2c(c(=O)[nH]1)NC(C(O)C(O)CO)CN2 (stereo not drawn) [H4N, tetrahydroneopterin]",functional or remodeling response to TAC,oral co-treatment,no effect
same,Arterial Elastance,[1],11.4 ± 0.7 mmHg/μL
same,Ejection Fraction,[1],43.4 ± 9.8%
same,End-diastolic Volume,[1],38.8 ± 8.0 µL
same,End-systolic Elastance,[1],41.0 ± 9.3 mmHg/μL · g
same,End-systolic Volume,[1],24.0 ± 7.6 µL
same,Heart RateR,[1],501.2 ± 28.5 min⁻¹
same,LV Systolic Pressure,[1],177.8 ± 4.6 mmHg
same,Peak Power Index,[1],31.8 ± 5.8 mmHg/s
same,Tau,[1],5.5 ± 0.36 ms
same,dPdtmn,[1],−10725 ± 971.0 mmHg/s
same,dPdtmx,[1],11154 ± 520 mmHg/s
